“Also recorded” adds a separate entry of the source. Read-outs that look alike come from different tables or passages of the source. Marks after values point to notes of the source that are not given here.
Columns and labels:
[1] = test system: PTZ-induced clonic seizures in mice; experiment: s.c. PTZ-induced clonic seizure test, with isobolographic analysis; format: in vivo
Method: Following PTZ administration, mice were placed separately in transparent Plexiglas cages (25 cm × 15 cm × 10 cm) and observed for 30 min for the occurrence of clonic seizures. Clonic seizure activity was defined as the clonus of the whole body lasting for over 3 s, with an accompanying loss of righting reflex.
To determine the ED50 mix value, both drugs in the mixture (at proportionally raised doses) were administered to the mice and a dose–response relationship for the mixture was denoted using Litchfield and Wilcoxon [25]’s log-probit method. • Statistical comparison of the experimentally derived ED50 mix values with their corresponding theoretically additive ED50 add values was undertaken using the unpaired Student’s t test, according to Tallarida [30]. • Graphical illustration of the examined interactions as isobolograms (i.e., simple forms of interaction visualizations).

[2] = test system: 6-Hz-induced seizures (44 mA); experiment: 6-Hz (44 mA) seizure model; format: in vivo; settings: Mus musculus, ip; mice, i.p., 30 min before the test; 95% confidence intervals in parentheses
[3] = test system: PTZ-induced kindling in mice; experiment: PTZ-induced kindling; format: in vivo; settings: 33 daily i.p. injections; AS-1 15, 30 and 60 mg/kg, VPA 150 mg/kg; PTZ 40 mg/kg i.p. every 48 h, 17 injections; vs PTZ-kindled control
Method: All suspensions and solutions were prepared freshly and administered in a constant volume of 0.1 ml per 10 g of body weight. In all experiments, AS-1 and VPA were injected i.p. Control animals received vehicles only. […] After each PTZ injection, mice were placed separately into transparent cages for 30 min for behavioral observation to assign an appropriate seizure score. […] After each PTZ injection, the mean seizure severity score for each experimental group was calculated. Non-kindled (control) mice were treated as kindled animals, except that they were injected with normal saline instead of PTZ. Experimental grouping for PTZ kindling was as follows: […]

PTZ-kindled mice [4] = experiment: locomotor activity test in PTZ-kindled mice; format: in vivo; settings: repeated i.p. injection, AS-1 15–60 mg/kg, VPA 150 mg/kg, day 34
Method: Twenty-four hours after the last PTZ injection (on day 34), mice were subjected to the locomotor activity test, the elevated plus maze test, and the forced swim test. Forty-eight hours after the last PTZ injection (on day 35) the i.v. PTZ seizure threshold test was performed. Spontaneous locomotor activity of mice was monitored using the […] system supported by SedaCom32 software (Panlab/Harvard Apparatus, Barcelona, Spain) according to the method described in detail elsewhere.

PTZ-kindled mice [5] = experiment: elevated plus maze test in PTZ-kindled mice; format: in vivo; settings: repeated i.p. injection, AS-1 15–60 mg/kg, VPA 150 mg/kg
Method: (§1) Twenty-four hours after the last PTZ injection (on day 34), mice were subjected to the locomotor activity test, the elevated plus maze test, and the forced swim test. Forty-eight hours after the last PTZ injection (on day 35) the i.v. PTZ seizure threshold test was performed. The elevated plus maze test was used to assess the anxiety-like behavior in kindled animal, as described in detail in our previous study.

kindled mice = experiment: i.v. PTZ seizure threshold test in kindled mice; format: in vivo
naïve mice = experiment: i.v. PTZ seizure threshold test in naïve mice; format: in vivo; settings: acute
Method: All suspensions and solutions were prepared freshly and administered in a constant volume of 0.1 ml per 10 g of body weight. […] The timed i.v. PTZ test was used to evaluate the changes in seizure threshold in both naïve and kindled mice. The experimental procedure has been described in detail in our earlier studies.

mice [6] = experiment: passive avoidance task; format: in vivo; settings: i.p. 30 min before, AS-1 81.12 mg/kg, VPA […], combination AS-1 27.6 + VPA 59.9 mg/kg
mice [7] = experiment: grip strength test; format: in vivo; settings: i.p. 30 min before, AS-1 81.12 mg/kg, VPA […], combination AS-1 27.6 + VPA 59.9 mg/kg
Source text: The time before the commencement of the grip strength test (after drug administration) was identical to that of the PTZ test. This experimental procedure has been described in detail in our earlier studies.

mice [8] = experiment: chimney test; format: in vivo; settings: i.p. 30 min before, AS-1 81.12 mg/kg, VPA […], combination AS-1 27.6 + VPA 59.9 mg/kg
Source text: [31]’s chimney test. The pretreatment time for AS-1 and VPA in the chimney test was identical to that of the PTZ test. This experimental procedure has been described in detail in our earlier studies.

[9] = test system: L-type Ca^2+ (diltiazem site, antagonist radioligand); experiment: L-type Ca2+ channel (diltiazem site) binding; settings: 100 μM; rat cerebral cortex
[10] = test system: GABA transporter (antagonist radioligand); experiment: GABA transporter binding; settings: 100 μM; rat cerebral cortex
TRPV1 (VR1) (h) = target: T1, TRPV1 (VR1) (h) (Homo sapiens, UniProt Q8NER1); experiment: TRPV1 functional assay (antagonist effect); format: cell-based; settings: human recombinant (CHO cells), read-out: % inhibition of control agonist/antagonist response (antagonist effect)
T1 construct: Cerep Laboratories (contract testing)

CB1 (h) = target: T2, CB1 (h) (Homo sapiens, UniProt P21554); experiment: CB1 functional assay (agonist and antagonist effect); format: cell-based; settings: human recombinant (CHO cells), read-out: % inhibition of control agonist/antagonist response (antagonist effect)
T2 construct: Cerep Laboratories (contract testing)

[11] = test system: fast voltage-gated sodium channels; experiment: patch clamp of sodium currents in prefrontal cortex pyramidal neurons; format: cell-based, rats; settings: 100 μM, holding potential − 65 mV, n = 6, p > 0.05
[12] = parallel artificial membrane permeability assay (PAMPA); format: in vitro ADME; settings: ± SD, read-out: Pe, permeability coefficient
[13] = metabolic stability on human liver microsomes (HLMs); format: in vitro ADME; settings: 120 min incubation with HLMs
hepatoma HepG2 cells [14] = experiment: hepatotoxicity, HepG2 cell viability; format: cell-based
[15] = test system: 6-Hz (32 mA) psychomotor seizures; settings: mice, i.p., cited from earlier work; for ED50 (6 Hz, 32 mA): ref [10], [12]; for anticonvulsant activity in 6 Hz, 32 mA: known AED profile, Fig. 1
CYP3A4 = CYP3A4 (Homo sapiens, UniProt P08684)
CYP2D6 = CYP2D6 (Homo sapiens, UniProt P10635)
CYP2C9 = CYP2C9 (Homo sapiens, UniProt P11712); settings: 10 μM
Na^+ channel (site 2) = test system: Na^+ channel (site 2); parameters: method as in Rapacz et al. [12]; settings: rat cerebral cortex, ref Rapacz et al. [12], cited from earlier work
[16] = test system: L-type Ca^2+ (verapamil site, antagonist radioligand); parameters: method as in Rapacz et al. [12]; settings: rat cerebral cortex, ref Rapacz et al. [12], cited from earlier work
[17] = test system: N-type Ca^2+ (antagonist radioligand); parameters: method as in Rapacz et al. [12]; settings: 100 μM; rat cerebral cortex; ref Rapacz et al. [12]; cited from earlier work
[18] = test system: NMDA (antagonist radioligand); parameters: method as in Rapacz et al. [12]; settings: rat cerebral cortex, ref Rapacz et al. [12], cited from earlier work
hepatoma HepG2 cells [19] = settings: 24 h incubation, only at the highest used dose of 100 μM; ref [12]; cited from earlier work
hERG potassium channel = hERG potassium channel (Homo sapiens, UniProt Q12809); experiment: in vitro
zebrafish larvae = experiment: EEG discharge assessment in zebrafish larvae exposed to PTZ; settings: 5 mM, 20 h incubation, then 20 mM PTZ for 5 min; vs vehicle-incubated control
6-Hz seizures = test system: 6-Hz seizures; parameters: method as in PMID 28449218; settings: 6-Hz test; ref [17]; cited from earlier work
PTZ-kindled mice [20] = test system: PTZ-kindled mice; parameters: method as in PMID 30247871; settings: former study, ref [13]; cited from earlier work
PTZ-kindled mice [21] = experiment: forced swim test in PTZ-kindled mice; format: in vivo; settings: repeated i.p. injection, AS-1 15–60 mg/kg, VPA 150 mg/kg, vs kindled control
Method: as §1, with “The forced swim” for “The elevated plus maze”, “the depressive-like” for “the anxiety-like”, “kindled animals. The procedure was performed” for “kindled animal,”, “detail elsewhere.” for “detail in our previous study.”

[22] = test system: PTZ-induced clonic seizures in mice; settings: i.p., cited from earlier work
[23] = test system: maximal electroshock (MES) seizure; settings: mice, i.p.; known AED profile, Fig. 1; cited from earlier work
[24] = repeated i.p. pretreatment 15–60 mg/kg
[25] = 15 mg/kg i.p., 30 min before the test
[26] = 30 mg/kg and 60 mg/kg i.p. (p < 0.01 and p < 0.001)

Sequence of CYP2D6 (P10635 whole entry): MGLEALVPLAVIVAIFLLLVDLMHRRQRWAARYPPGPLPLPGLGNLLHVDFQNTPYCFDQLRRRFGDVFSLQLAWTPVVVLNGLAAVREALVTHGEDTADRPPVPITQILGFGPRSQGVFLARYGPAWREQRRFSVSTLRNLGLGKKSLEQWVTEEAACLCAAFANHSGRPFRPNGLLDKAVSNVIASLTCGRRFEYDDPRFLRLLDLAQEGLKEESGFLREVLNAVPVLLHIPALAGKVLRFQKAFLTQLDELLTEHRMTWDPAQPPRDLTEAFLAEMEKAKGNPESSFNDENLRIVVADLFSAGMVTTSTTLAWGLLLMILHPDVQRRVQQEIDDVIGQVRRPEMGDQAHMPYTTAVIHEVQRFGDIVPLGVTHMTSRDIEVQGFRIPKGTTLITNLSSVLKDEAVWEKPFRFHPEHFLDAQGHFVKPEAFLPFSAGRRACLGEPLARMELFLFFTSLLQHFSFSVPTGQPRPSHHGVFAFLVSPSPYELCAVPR
T1 sequence (Q8NER1 whole entry): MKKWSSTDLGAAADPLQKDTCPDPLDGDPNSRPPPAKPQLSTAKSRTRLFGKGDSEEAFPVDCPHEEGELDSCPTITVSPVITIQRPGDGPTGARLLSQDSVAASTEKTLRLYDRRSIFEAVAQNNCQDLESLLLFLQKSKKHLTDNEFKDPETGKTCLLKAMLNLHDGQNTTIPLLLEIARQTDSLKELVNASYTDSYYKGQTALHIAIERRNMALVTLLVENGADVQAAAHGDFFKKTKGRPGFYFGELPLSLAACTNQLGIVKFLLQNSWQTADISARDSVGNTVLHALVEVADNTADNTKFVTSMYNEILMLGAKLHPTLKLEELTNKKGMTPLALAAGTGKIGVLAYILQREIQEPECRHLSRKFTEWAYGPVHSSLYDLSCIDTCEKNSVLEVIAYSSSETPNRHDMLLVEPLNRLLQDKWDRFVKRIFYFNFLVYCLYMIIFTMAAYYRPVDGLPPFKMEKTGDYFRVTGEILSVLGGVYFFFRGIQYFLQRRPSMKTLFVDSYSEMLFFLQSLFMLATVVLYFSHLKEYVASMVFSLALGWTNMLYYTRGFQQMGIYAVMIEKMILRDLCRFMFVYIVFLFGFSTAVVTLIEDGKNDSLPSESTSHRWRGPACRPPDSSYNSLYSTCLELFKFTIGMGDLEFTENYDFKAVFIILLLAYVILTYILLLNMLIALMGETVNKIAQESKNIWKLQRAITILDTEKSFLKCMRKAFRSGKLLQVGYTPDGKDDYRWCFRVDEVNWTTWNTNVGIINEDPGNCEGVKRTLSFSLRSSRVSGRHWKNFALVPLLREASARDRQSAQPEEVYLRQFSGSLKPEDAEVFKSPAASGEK
Sequence of CYP3A4 (P08684 whole entry): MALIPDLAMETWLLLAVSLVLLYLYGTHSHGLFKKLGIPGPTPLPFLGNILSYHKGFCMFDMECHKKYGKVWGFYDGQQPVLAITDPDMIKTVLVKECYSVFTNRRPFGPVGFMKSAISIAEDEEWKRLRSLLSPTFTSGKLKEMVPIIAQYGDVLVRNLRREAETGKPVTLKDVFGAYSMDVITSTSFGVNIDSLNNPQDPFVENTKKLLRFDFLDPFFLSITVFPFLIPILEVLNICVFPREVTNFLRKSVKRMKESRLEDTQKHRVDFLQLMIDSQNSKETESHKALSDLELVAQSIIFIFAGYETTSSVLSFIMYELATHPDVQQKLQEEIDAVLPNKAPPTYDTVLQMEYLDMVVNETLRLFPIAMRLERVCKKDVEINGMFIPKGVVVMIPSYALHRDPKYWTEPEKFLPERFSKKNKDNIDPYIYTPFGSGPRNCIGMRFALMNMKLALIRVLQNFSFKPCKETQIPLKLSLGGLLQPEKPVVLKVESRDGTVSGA
T2 sequence (P21554 whole entry): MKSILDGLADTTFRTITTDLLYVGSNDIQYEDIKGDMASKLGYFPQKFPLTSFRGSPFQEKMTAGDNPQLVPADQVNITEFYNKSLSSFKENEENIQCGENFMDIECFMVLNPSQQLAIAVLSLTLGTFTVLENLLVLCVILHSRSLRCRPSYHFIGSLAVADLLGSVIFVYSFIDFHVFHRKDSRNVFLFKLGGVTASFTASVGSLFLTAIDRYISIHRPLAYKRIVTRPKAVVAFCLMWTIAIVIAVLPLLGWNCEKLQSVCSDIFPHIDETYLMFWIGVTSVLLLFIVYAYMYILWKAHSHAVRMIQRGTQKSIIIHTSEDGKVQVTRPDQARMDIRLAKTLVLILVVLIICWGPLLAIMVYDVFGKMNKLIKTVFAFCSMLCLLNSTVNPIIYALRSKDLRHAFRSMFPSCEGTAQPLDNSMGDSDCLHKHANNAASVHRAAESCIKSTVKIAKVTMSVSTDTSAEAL
Sequence of hERG potassium channel (Q12809 whole entry): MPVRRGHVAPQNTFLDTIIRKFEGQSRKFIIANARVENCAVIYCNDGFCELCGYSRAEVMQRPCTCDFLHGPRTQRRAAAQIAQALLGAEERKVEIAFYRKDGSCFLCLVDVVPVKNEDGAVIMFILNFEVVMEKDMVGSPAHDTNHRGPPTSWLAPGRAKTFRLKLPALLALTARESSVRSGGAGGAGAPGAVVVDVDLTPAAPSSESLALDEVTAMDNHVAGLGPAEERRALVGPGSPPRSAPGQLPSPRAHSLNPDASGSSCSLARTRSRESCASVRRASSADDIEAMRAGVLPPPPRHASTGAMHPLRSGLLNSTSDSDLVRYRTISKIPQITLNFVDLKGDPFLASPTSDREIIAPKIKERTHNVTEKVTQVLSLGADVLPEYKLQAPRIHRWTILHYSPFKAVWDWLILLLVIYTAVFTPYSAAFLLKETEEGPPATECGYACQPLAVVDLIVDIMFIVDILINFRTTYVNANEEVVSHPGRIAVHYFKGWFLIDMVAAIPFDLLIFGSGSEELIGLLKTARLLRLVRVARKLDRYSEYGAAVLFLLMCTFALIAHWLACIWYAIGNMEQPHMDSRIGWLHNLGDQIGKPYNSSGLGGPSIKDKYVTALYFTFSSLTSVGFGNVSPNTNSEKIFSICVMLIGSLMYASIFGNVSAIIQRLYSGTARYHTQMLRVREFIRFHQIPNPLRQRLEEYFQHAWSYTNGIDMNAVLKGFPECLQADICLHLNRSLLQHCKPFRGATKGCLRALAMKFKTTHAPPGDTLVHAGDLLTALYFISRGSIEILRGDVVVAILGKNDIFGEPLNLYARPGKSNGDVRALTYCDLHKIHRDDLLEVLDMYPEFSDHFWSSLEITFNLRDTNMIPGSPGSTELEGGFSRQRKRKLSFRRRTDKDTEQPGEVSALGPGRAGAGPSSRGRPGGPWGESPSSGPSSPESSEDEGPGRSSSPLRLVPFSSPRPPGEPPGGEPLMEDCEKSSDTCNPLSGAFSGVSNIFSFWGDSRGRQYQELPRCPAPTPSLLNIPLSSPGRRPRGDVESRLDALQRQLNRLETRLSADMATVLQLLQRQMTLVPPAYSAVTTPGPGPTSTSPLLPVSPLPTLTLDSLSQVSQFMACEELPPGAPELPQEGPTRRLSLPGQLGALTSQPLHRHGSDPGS
Sequence of CYP2C9 (P11712 whole entry): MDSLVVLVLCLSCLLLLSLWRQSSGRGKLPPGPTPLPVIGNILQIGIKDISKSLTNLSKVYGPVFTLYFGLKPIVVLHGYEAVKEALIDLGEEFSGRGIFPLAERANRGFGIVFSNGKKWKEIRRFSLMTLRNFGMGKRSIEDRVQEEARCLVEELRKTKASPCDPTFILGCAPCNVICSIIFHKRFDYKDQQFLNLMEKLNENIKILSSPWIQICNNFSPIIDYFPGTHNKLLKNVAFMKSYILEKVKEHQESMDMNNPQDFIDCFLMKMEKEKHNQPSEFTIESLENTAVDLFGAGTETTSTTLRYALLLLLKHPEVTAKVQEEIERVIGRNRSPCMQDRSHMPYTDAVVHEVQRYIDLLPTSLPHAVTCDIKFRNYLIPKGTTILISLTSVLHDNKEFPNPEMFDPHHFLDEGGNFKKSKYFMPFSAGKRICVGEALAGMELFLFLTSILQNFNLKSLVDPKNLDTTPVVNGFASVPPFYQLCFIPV

CC(C(=O)NCc1ccccc1)N1C(=O)CCC1=O (stereo not drawn) [AS-1, N-benzyl-2-(2,5-dioxopyrrolidin-1-yl)propanamide]
ED50 ([1]; Mus musculus, drug alone i.p. 30 min before s.c. PTZ 100 mg/kg, ± SEM, read-out: ED50 against PTZ-induced clonic seizures): 81.1 ± 10.4 mg/kg
ED50 [2]: 75.4 mg/kg
effect on kindling development (mean seizure severity score) [3]: significantly suppressed kindling development
effect on spontaneous locomotor activity (PTZ-kindled mice [4]): did not affect locomotor activity
effect on percentage of open arm entries and percentage of time spent in open arms (PTZ-kindled mice [5]): did not produce any significant changes
effect on seizure threshold for the first myoclonic twitch (kindled mice; repeated i.p. injection of 60 mg/kg, 48 h after last PTZ, vs non-kindled control): significantly increased the seizure threshold
effect on threshold for forelimb tonus (kindled mice; [24]): No changes
effect on threshold for generalized clonus (kindled mice; [24]): No changes
effect on threshold for generalized clonus (naïve mice; [25]): did not affect significantly
effect on threshold for the first myoclonic twitch (naïve mice; [25]): did not affect significantly
effect on threshold for generalized clonic seizure (naïve mice; [26]): raised the thresholds
effect on threshold for the first myoclonic twitch (naïve mice; [26]): raised the thresholds
effect on susceptibility to PTZ-induced forelimb extension (forelimb tonus threshold) (naïve mice; 15–60 mg/kg i.p.): did not affect
Retention time, median (25th; 75th percentiles) (mice [6]): 180 (146; 180) s
Muscular strength, mean grip strength ± SEM (mice [7]): 99.9 ± 2.2 g
Motor coordination, percentage of animals showing motor coordination impairment (mice [8]): 0%
% inhibition of control-specific binding [9]: 10.2 (100) %
% inhibition of control-specific binding [10]: 2.4 (100) %
inhibition at 100 µM (TRPV1 (VR1) (h)): 4.3%
inhibition at 100 µM (CB1 (h)): 5.6%
maximal amplitude of sodium currents normalized to control (1.0 in control) [11]: 0.93 ± 0.06
Papp [12]: 9.8 ± 2 ×10⁻⁶ cm/s
Phase I metabolism in human (metabolites by UPLC) [13]: no presence of metabolites; also recorded: No metabolites found
HepG2 viability (hepatoma HepG2 cells [14]; 100 μM, 72 h incubation, ± SD): 82.3 ± 6.5^a Percentage of control
effect on HepG2 cells' viability (hepatoma HepG2 cells [14]; only at the highest concentration used of 100 μM, 72 h, p < 0.05): slight but statistically significant effect
ED50 (6 Hz, 32 mA) [15]: 24.66 mg/kg
effect on CYP3A4 activity (CYP3A4): No significant effect
effect on CYP2D6 activity (CYP2D6): No significant effect
CYP2D6 activity (CYP2D6; human, 10 μM): 104.4 ± 0.5^a Percentage of control
CYP2C9 activity (CYP2C9): 67.0 ± 3.6^a Percentage of control
% inhibition of control-specific binding (Na^+ channel (site 2); 100 μM): 15.9%
% inhibition of control-specific binding (Na^+ channel (site 2); 500 μM): 56.0%
% inhibition of control-specific binding ([16]; 100 μM): 15.0%
% inhibition of control-specific binding ([16]; 500 μM): 45.0%
% inhibition of control-specific binding [17]: 0.2 (100) %
% inhibition of control-specific binding ([18]; 100 μM): 15.0%
% inhibition of control-specific binding ([18]; 200 μM): 35.0%
effect on HepG2 cells (hepatoma HepG2 cells [19]): weak, statistically significant toxic effect
inhibition at 100 µM (hERG potassium channel): 0.8%
effect on number of epileptiform discharges during 20 min (zebrafish larvae): significantly reduced

CC[C@@H](C(N)=O)N1CCCC1=O [LEV, levetiracetam]
anticonvulsant activity in 6 Hz, 32 mA [15]: active
ED50 at 44 mA versus ED50 at 32 mA stimulus intensity (6-Hz seizures): at least 50 times

CC(C(=O)N1CCN(c2cccc(C(F)(F)F)c2)CC1)N1C(=O)CCC1=O (stereo not drawn) [KA-11, 1-(1-oxo-1-(4-(3-(trifluoromethyl)phenyl)piperazin-1-yl)propan-2-yl)pyrrolidine-2,5-dione]
effect on depressive-like behavior caused by PTZ-induced kindling (PTZ-kindled mice [20]): prevented the depressive-like behavior

CCCC(CCC)C(=O)O [VPA, valproic acid, reference compound]
protection against PTZ-induced clonic seizures ([1]; 125 mg/kg i.p.): 12.5%
protection against PTZ-induced clonic seizures ([1]; 150 mg/kg i.p.): 37.5%
protection against PTZ-induced clonic seizures ([1]; 200 mg/kg i.p.): 62.5%
effect on kindling development (mean seizure severity score) [3]: suppressed kindling progression
effect on spontaneous locomotor activity (PTZ-kindled mice [4]): did not affect locomotor activity
effect on percentage of open arm entries and percentage of time spent in open arms (PTZ-kindled mice [5]): did not produce any significant changes
effect on total immobility duration (PTZ-kindled mice [21]): significantly decreased the immobility time
Retention time, median (25th; 75th percentiles) (mice [6]): 180 (180; 180) s
Muscular strength, mean grip strength ± SEM (mice [7]): 104.7 ± 2.8 g
Motor coordination, percentage of animals showing motor coordination impairment (mice [8]): 12.5%
ED50 (s.c. PTZ) ([22]; earlier study, ref [10], [12]): 239.45 mg/kg
ED50 (6 Hz, 32 mA) [15]: 130.65 mg/kg

N#CC(C#N)=NNc1cccc(Cl)c1 [CCCP, carbonyl cyanide 3-chlorophenylhydrazone, reference compound]
HepG2 cells' viability (hepatoma HepG2 cells [14]; 10 μM): ~ 40 % of control

COc1cccc2c1C(=O)c1c(O)c3c(c(O)c1C2=O)C[C@@](O)(C(=O)CO)C[C@@H]3O[C@H]1C[C@H](N)[C@H](O)[C@H](C)O1 [DX, doxorubicin, reference compound]
HepG2 cells' viability (hepatoma HepG2 cells [14]; 1 μM): ~ 40 % of control

COC[C@@H](NC(C)=O)C(=O)NCc1ccccc1 [LCS, lacosamide, reference compound]
anticonvulsant activity in MES [23]: active
anticonvulsant activity in 6 Hz, 32 mA [15]: active

CCC1(C)CC(=O)NC1=O (stereo not drawn) [ETX, ethosuximide]
anticonvulsant activity in scPTZ ([22]; known AED profile, Fig. 1): active

From article PMC7007424 (Neurotherapeutics, 2019)
